Laboratory results as given in ChEMBL document CHEMBL3879904, “Selective sphingosine 1 phosphate receptor modulators and methods of chiral synthesis” (2013).

Experiments:
[1] = Toxicity in Sprague-Dawley rat assessed as dose required to produce 10% increase in lung to terminal body weight ratio administered orally via gavage for 5 to 14 days measured 24 hrs post last dose; conditions: in vivo, po
Rattus norvegicus = assay: Antiinflammatory activity in Sprague-Dawley rat assessed as dose required to produce 50% lymphopenia administered orally via gavage for 3 to 5 days measured 24 hrs post last dose; format: functional
[2] = target: Sphingosine 1-phosphate receptor 1 (Homo sapiens, UniProt P21453); assay: Agonist activity at human S1P1 expressed in CRE-bla CHOK1 cells assessed as inhibition of forskolin-induced cAMP formation preincubated for 4 hrs followed by FRET-based beta-lactamase fluorescent substrate addition measured after 2 hrs; format: functional, cell-based, CHO-K1
[3] = Therapeutic index, ratio of dose required to produce 10% increase in lung to terminal body weight ratio administered for 14 days to dose required to produce 50% lymphopenia in Sprague-Dawley rat; conditions: in vivo, read-out: TI
Mus musculus [4] = assay: Antiinflammatory activity in Influenza A virus (A/WSN/33) infected C57Bl/6 mouse model assessed as suppression of inflammatory cell infiltration into lungs at 0.5 mg/kg administered intratracheally 1 hr post viral infection measured after 48 hrs relative to control; format: functional; conditions: C57Bl/6, inhaled or nasal
[5] = Oral bioavailability in Sprague-Dawley rat at 2 mg/kg administered via gavage by HPLC-LC/MS/MS method; format: ADME, organism-based; conditions: in vivo
Mus musculus [6] = assay: Antiinflammatory activity in C57BL6 mouse assessed as induction of lymphopenia by measuring CD4 or CD8-positive T cell levels at 1 mg/kg, po administered via gavage measured over 24 hrs by FACS analysis relative to control; format: functional

Sphingosine 1-phosphate receptor 1, sequence (P21453 whole entry): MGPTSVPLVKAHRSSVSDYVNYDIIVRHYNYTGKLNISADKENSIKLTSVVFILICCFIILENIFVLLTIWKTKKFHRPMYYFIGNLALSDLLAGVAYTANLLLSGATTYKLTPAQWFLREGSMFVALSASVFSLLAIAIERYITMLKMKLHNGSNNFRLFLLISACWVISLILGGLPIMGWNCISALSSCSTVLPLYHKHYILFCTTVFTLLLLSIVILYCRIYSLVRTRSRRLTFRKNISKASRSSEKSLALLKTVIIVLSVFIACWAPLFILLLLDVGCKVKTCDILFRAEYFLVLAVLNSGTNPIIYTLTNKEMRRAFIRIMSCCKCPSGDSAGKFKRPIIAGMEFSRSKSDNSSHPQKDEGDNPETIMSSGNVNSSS

SMILES	Activity [1]	Activity (Rattus norvegicus)	further results
CC(C)Oc1ccc(-c2nc(-c3cccc4c3CC[C@@H]4NC(=O)N3CC(O)C3)no2)cc1C#N	11.3 mg/kg	2 mg/kg	
CC(C)Oc1ccc(-c2nc(-c3cccc4c3CC[C@@H]4NCCO)no2)cc1C#N [OZANIMOD]	2.7 mg/kg	0.15 mg/kg	
CC(C)Oc1ccc(-c2nc(-c3cccc4c3CC[C@H]4NCC(=O)N3CCOCC3)no2)cc1C#N			EC50 [2]: 50 to 500 pM
COCCS(=O)(=O)N[C@H]1CCc2c(-c3noc(-c4ccc(OC(C)C)c(C#N)c4)n3)cccc21	5 mg/kg	0.25 mg/kg	
CC(C)Oc1ccc(-c2nc(-c3cccc4c3CC[C@@H]4NCC(=O)N(C)C)no2)cc1C#N	0.3 mg/kg	0.3 mg/kg	
CC(C)Oc1ccc(-c2nc(-c3cccc4c3CC[C@H]4N)no2)cc1C#N.Cl	0.2 mg/kg	0.1 mg/kg	selectivity ratio at 336 h [3]: 2
CC(C)Oc1ccc(-c2nc(-c3cccc4c3CC[C@H]4NC(=O)c3ccc(Br)cc3)no2)cc1C#N			EC50 [2]: > 5000 pM
CC(C)Oc1ccc(-c2nc(-c3cccc4c3CC[C@@H]4NC(=O)N(C)C)no2)cc1C#N			EC50 [2]: 50 to 500 pM
CC(C)Oc1ccc(-c2nc(-c3cccc4c3CC[C@H]4NC(=O)N3CC(O)C3)no2)cc1C#N	21.3 mg/kg	0.9 mg/kg	
CC(C)Oc1ccc(-c2nc(-c3cccc4c3CC[C@H]4NCCO)no2)cc1C#N	2.8 mg/kg	0.15 mg/kg	inhibition in vivo at 0.5 mg/kg (Mus musculus [4]): 40%
COCCS(=O)(=O)N[C@@H]1CCc2c(-c3noc(-c4ccc(OC(C)C)c(C#N)c4)n3)cccc21	2.1 mg/kg	0.07 mg/kg	
CCOc1ccc(-c2nc(-c3cccc4c3CCC4NCCO)no2)cc1OCC (racemic)			bioavailability [5]: 21%; AUEC (Mus musculus [6]): 116%
CC(C)Oc1ccc(-c2nc(-c3cccc4c3CC[C@@H]4NS(=O)(=O)CCO)no2)cc1C#N	5 mg/kg	0.5 mg/kg	
CC(C)Oc1ccc(-c2nc(-c3cccc4c3CC[C@H]4NCC(=O)N(C)C)no2)cc1C#N.Cl	5.5 mg/kg	0.4 mg/kg	
CC(C)Oc1ccc(-c2nc(-c3cccc4c3CC[C@@H]4N)no2)cc1C#N	2 mg/kg	0.1 mg/kg	
CC(C)Oc1ccc(-c2nc(-c3cccc4c3CC[C@H]4NS(=O)(=O)CCO)no2)cc1C#N	1.1 mg/kg	0.07 mg/kg	
